Test results from US8637043B2, “Compositions useful as ligands for the formyl peptide receptor like 1 receptor and methods of use thereof” (Chemocentryx, Inc., priority 2001, dated 2014).
Where “and” joins values, the source holds several entries; their conditions need not be identical. Identical values can stand only once. Ends that are not written are not given here.

Assays:
[1] = test system: dendritic cells; assay: Dendritic cell infiltration after intradermal injection in mice (anti-DEC-205 staining); type: in vivo; set-up: key to Dendritic cell infiltration Score / Infiltration Score: 0 = none, 1 = slight, 2 = mild, 3 = moderate, 4 = severe
Description: The following chemokines were obtained from R&D Systems (Minneapolis, Minn.): vMCK-2, mC10, and GM-CSF. The following peptides were synthesized at Phoenix Pharmaceuticals (San Carlos, Calif.): SHAAYtide (SEQ ID NO:6), several […] MODIFIED peptides of SHAAGtide variant (SEQ ID NO:) (i.e. cyclized using the MPR-Cys linked cyclization), control peptide (SEQ ID NO:33, […]Gin Pro Gly lie Lys Arg Arg Trp Leu Met), randomly conjugated to OVA in either a 1:1 or 1:4 ratio (by MBS coupling method), and conjugated to OVA at the C-terminus (C-term, made by the addition of a cysteine), and SHAAGtide variant (SEQ ID NO:3). In three separate experiments, chemokines or peptides (2 μg or 20 μg in PBS) were injected intradermally into BALB/c or C57BI/6 mice (Jackson Laboratory; Bar Harbor, Me.). In each experiment, one mouse received an injection of PBS only as a negative control. At various times after injection, the mice were euthanized, and the area around the injection site was excised and subjected to immunohistology. Frozen sections were stained with anti-DEC-205 antibody (Bio-Whittaker Molecular Applications; Rockland, Me.) that recognizes a dendritic cell-specific molecule (Kraal et al., 1986). A relative staining number on a scale of […] was assigned to each section (0, none; 1, slight; 2, mild; 3, moderate; 4, severe).

[2] = test system: OVA-specific IgG; assay: Adjuvant activity, anti-OVA antibodies in Rhesus monkeys (Example 16); type: in vivo; conditions: effectiveness as adjuvant
Description: First, 96-well U-bottom plastic dishes were coated overnight with 1 μg ovalbumin (OVA) in 100 μl PBS per well. The next day, the dishes were rinsed with PBS, blocked with PBS containing 5% fetal bovine serum (FBS), and rinsed with PBS again. Plasma samples from experimental animals (see below) were diluted 10^2- to 10^5-fold and added to the dishes for 2 hours, after which the dishes were again rinsed with PBS. The dishes were then incubated with biotinylated goat anti-monkey IgG detection antibodies, then rinsed with PBS and incubated with streptavidin-linked horseradish peroxidase (SA-HRP). After a final rinsing with PBS, the HRP substrate 2,2′-Azinobis [3-ethylbenzothiazoline-6-sulfonic acid]-diammonium salt was added. Color development was measured with an ELISA plate reader at 405 nm, and optical density (OD) units were converted to arbitrary “antibody units,” where a unit is defined as the inverse of the plasma dilution that produces 50% of the maximum response from a standard curve obtained by serial dilution of an ascites collected from OVA-injected mice and containing OVA-specific antibodies.
Since the SHAAYtide (SEQ ID NO:6) and the chemokines mC10 and vMCK-2 recruited APCs, including dendritic cells, to the site of injection, these polypeptides were tested for their ability to act as immunization adjuvants to augment the immune response to a co-injected foreign antigen. […]

[3] = test system: OVA-specific antibody; assay: OVA-specific antibody responses with IFA or alum adjuvant in Rhesus monkeys (Example 18); type: in vivo
Description: First, 96-well U-bottom plastic dishes were coated overnight with 1 μg ovalbumin (OVA) in 100 μl PBS per well. The next day, the dishes were rinsed with PBS, blocked with PBS containing 5% fetal bovine serum (FBS), and rinsed with PBS again. Plasma samples from experimental animals (see below) were diluted 10^2- to 10^5-fold and added to the dishes for 2 hours, after which the dishes were again rinsed with PBS. The dishes were then incubated with biotinylated goat anti-monkey IgG detection antibodies, then rinsed with PBS and incubated with streptavidin-linked horseradish peroxidase (SA-HRP). After a final rinsing with PBS, the HRP substrate 2,2′-Azinobis [3-ethylbenzothiazoline-6-sulfonic acid]-diammonium salt was added.
Different types of immune responses can be induced in mammals by varying parameters such as the dose of antigen, the formulation, the route of administration, and the type of adjuvant.

[4] = test system: native L1.2 cells; assay: Calcium flux in parental L1.2 cells or cells transfected with other chemokine receptors; type: cell-based, murine; conditions: pariental cells or cells transfected with other chemokine receptors
Description: The functional activities of CKβ8-1 (25-116) were investigated in human FPRL1-L1.2 transfectants and in native L1.2 cells. Stable expression of formyl peptide-like receptor 1 (FPRL1) in L.1.2 cell was obtained as follows. Full length cDNA encoding FPRL1 was cloned, using the polymerase chain reaction (PCR), from genomic DNA isolated from undifferentiated HL-60 cells. The polymerase chain reaction product was cloned into pcDNA3.1 (Invitrogen, Carlsbad, Calif.) using standard molecular cloning procedures and completely sequenced to confirm identity. Twenty micrograms of the FPRL1/pcDNA3.1 construct were linearized by digestion with Bsm1 (New England Biolabs, Beverly, Mass.) and used to transfect the murine B cell line L1.2 as follows. Twenty five million cells were washed twice and resuspended in 0.8 ml of PBS. The cells were incubated for 10 min at room temperature with the linearized FPRL/pcDNA3.1 construct DNA and transferred to a 0.4-cm cuvette, and a single electroporation pulse was applied at 250 V, 960 μF. Electroporated cells were incubated for 10 min at room temperature and transferred to culture at 37° C. in RPMI supplemented with 10% FCS. […] After 2-3 weeks under drug selection, stable geneticin-resistant FPLR1 expressing cells were assessed for their ability to mobilize Ca^++ in response to SHAAGtide or CKbeta 8-1 at concentrations of 1 to 1000 nM. […]

Molecule | Dendritic cell infiltration Score ([1]; BALBc mice, 2 μg, 6 hours, listed as SHAAYtide (SEQ ID NO: 6)) | Dendritic cell infiltration Score ([1]; BALBc mice, 2 μg, 30 hours, listed as SHAAYtide (SEQ ID NO: 6)) | Dendritic cell infiltration Score ([1]; BALBc mice, 20 μg, 6 hours, listed as SHAAYtide (SEQ ID NO: 6)) | Dendritic cell infiltration Score ([1]; C57B1/6 mice, 2 μg dose, 6 hours, 0 none, 1 slight, 2 mild, 3 moderate, 4 severe, one animal per line) | Dendritic cell infiltration Score ([1]; C57B1/6 mice, 2 μg dose, 30 hours) | Dendritic cell infiltration Score ([1]; C57B1/6 mice, 2 μg dose, 51 hours) | infiltration of DEC-205-labeled cells ([1]; summary of Tables 15, 16 and 17) | Notes: adjuvant [2] | effect of co-administration on the OVA with IFA response ([3]; IFA adjuvant) | effect of co-administration on the IgG response induced by OVA plus alum ([3]; alum adjuvant) | induced calcium release [4]
MLWRRKIGPQMTLSHAAY [SEQ ID NO: 6] | 2 and 3 | 3 and 2 | 2 and 3 | 1 | 0 | 0 | excellent infiltration | effective | did not diminish the OVA with IFA response | dramatically reduced the IgG response induced by OVA plus alum | 
CKβ8-1(25-116): novel NH2-terminal truncated form of CKβ8-1, SEQ ID NO: 16, human recombinant chemokine (protein, listed as Homo sapiens) MLWRRKIGPQMTLSHAAGFHATSADCCISYTPRSIPCSLLESYFETNSECSKPGVIFLTKKGRRFCANPSDKQVQVCMRMLKLDTRIKTRKN |  |  |  |  |  |  |  |  |  |  | not observed
